The target of experiment [1] is T1, Prostaglandin E2 receptor EP3 subtype (Mus musculus, UniProt P30557).
T1 sequence (P30557 whole entry): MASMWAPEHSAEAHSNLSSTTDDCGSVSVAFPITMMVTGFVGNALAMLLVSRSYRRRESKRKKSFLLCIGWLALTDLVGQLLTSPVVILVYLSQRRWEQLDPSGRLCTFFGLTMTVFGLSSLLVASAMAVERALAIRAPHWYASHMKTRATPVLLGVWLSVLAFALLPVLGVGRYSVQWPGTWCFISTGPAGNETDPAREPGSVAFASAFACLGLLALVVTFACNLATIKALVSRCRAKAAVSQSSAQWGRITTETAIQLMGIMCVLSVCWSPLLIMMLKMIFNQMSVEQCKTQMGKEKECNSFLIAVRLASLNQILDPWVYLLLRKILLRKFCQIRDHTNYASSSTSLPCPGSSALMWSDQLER

In experiment [2] the target is Prostaglandin E2 receptor EP2 subtype (Mus musculus, UniProt Q62053).
Chain of Prostaglandin E2 receptor EP2 subtype (Q62053 whole entry): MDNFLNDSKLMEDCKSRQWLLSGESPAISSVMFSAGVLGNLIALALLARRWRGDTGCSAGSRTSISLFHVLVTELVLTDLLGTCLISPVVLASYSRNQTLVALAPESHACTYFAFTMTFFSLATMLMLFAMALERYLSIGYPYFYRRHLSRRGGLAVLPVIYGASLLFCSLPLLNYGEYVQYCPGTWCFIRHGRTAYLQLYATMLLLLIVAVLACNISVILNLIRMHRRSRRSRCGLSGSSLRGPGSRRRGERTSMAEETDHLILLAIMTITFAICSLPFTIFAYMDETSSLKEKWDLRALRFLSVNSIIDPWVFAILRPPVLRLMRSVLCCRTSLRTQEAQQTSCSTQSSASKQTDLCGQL
Experiment [3] deals with Prostaglandin E2 receptor EP4 subtype (Mus musculus, UniProt P32240).
Chain of Prostaglandin E2 receptor EP4 subtype (P32240 whole entry): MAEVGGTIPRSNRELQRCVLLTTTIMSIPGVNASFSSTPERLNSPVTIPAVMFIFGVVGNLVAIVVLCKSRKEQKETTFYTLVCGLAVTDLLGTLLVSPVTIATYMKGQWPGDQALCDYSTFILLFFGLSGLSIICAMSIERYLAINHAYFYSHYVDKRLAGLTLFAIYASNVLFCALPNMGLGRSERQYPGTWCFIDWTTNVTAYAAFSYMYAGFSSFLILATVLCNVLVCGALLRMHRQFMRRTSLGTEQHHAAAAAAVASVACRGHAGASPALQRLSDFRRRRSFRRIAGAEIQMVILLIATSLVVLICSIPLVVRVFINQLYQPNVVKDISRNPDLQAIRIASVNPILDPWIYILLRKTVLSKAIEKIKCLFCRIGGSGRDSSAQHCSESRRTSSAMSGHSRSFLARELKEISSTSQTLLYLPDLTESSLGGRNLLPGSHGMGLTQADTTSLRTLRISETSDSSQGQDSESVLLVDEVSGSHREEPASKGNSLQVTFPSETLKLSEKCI
Experiment [4] deals with Prostacyclin receptor (Mus musculus, UniProt P43252).
Chain of Prostacyclin receptor (P43252 whole entry): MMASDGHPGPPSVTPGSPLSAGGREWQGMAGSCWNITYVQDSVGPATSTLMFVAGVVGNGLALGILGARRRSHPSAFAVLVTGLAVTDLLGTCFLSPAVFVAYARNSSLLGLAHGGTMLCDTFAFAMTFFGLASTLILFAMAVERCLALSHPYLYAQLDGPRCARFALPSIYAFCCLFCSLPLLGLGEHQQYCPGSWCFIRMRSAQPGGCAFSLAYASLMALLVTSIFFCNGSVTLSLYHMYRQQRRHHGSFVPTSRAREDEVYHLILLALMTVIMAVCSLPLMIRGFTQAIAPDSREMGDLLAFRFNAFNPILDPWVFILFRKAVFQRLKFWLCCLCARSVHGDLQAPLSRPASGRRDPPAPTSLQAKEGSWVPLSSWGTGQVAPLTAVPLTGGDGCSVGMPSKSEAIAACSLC
For experiment [5], the target named is T2, Prostaglandin E2 receptor EP1 subtype (Mus musculus, UniProt P35375).
T2 sequence (P35375 whole entry): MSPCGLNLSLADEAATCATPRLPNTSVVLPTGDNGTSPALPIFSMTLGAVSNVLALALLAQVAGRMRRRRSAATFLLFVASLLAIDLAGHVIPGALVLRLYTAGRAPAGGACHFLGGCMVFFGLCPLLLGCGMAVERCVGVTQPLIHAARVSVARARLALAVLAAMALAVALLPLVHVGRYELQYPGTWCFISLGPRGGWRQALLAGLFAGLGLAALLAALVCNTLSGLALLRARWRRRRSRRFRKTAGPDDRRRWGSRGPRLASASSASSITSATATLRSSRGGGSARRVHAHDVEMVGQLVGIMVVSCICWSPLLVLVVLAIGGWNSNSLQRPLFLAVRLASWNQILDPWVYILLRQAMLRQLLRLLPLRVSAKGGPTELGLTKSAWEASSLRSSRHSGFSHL

The target in experiment [6] is Prostaglandin F2-alpha receptor (Mus musculus, UniProt P43117).
Chain of Prostaglandin F2-alpha receptor (P43117 whole entry): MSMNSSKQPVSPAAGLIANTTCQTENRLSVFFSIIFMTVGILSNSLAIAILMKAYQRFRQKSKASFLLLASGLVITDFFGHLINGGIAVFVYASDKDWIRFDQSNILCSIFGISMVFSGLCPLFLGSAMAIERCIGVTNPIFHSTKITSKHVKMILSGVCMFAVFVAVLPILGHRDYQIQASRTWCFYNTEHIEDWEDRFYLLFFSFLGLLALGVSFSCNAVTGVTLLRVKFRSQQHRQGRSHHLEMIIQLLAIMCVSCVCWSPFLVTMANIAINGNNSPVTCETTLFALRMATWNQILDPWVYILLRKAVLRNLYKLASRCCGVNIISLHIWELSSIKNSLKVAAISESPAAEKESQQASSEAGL
The target in experiment [7] is T3, Thromboxane A2 receptor (Mus musculus, UniProt P30987).
T3 sequence (P30987 whole entry): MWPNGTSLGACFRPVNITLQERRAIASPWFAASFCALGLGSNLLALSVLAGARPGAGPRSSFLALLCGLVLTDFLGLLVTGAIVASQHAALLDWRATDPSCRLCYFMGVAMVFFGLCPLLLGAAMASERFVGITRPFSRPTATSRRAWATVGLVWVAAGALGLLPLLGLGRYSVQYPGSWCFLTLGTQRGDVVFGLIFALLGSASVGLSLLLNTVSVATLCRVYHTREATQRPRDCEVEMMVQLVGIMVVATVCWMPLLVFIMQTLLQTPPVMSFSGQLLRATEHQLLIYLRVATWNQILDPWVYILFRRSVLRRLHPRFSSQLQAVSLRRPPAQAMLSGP

The structures appear in SMILES notation.

As usually defined, the Ki is a measure of affinity in units of concentration, obtained from inhibition or displacement. Read a high Ki as a looser hold on the target. As for `CC#CCC(C)[C@H](O)/C=C/[C@@H]1[C@H]2C/C(=C/CCCC(=O)O)C[C@H]2C[C@H]1O` (some centres not stated), the inhibition constant (Ki) was 22 nM in experiment [1]; 1600 nM in experiment [2]; 2300 nM in experiment [3]; 11 nM in experiment [4]; 21 nM in experiment [5].
In the same order, the values of `CCCCC[C@@H](O)/C=C/[C@H]1[C@H](O)CC(=O)[C@@H]1CCCCCCC(=O)O` are 1.1 nM, 10 nM, 2.1 nM, 33 nM and 36 nM.
For the compound `CCCCC[C@H](O)/C=C/[C@@H]1[C@H]2C/C(=C\CCCC(=O)O)C[C@H]2C[C@H]1O`, the Ki was determined as 31 nM in experiment [1]; 1600 nM in experiment [2]; 2300 nM in experiment [3]; 110 nM in experiment [4]; 1200 nM in experiment [6].
As to `CCCCC(C)(C)C(O)C=CC1C(O)CC(=O)C1CC=CCCCC(=O)O` (configuration not stated), the Ki in experiment [1] amounted to 1.9 nM; in experiment [2], 17 nM; in experiment [3], 43 nM; in experiment [6], 350 nM.
`O=C(O)CCC/C=C\C[C@@H]1C(NS(=O)(=O)c2ccccc2)C2CC[C@@H]1C2` (single isomer, unassigned; (+)) [S 145] showed an inhibitory constant (Ki) in experiment [7] of 0.68 nM.
Regarding `O=C(O)CCC/C=C\C[C@H]1C(=O)C[C@@H](O)[C@@H]1/C=C/[C@@H](O)CCc1ccccc1` [17-PHENYL TRINOR PROSTAGLANDIN E2], the inhibitory constant (Ki) in experiment [1] is 3.7 nM; in experiment [3], 1000 nM; in experiment [6], 60 nM; in experiment [5], 14 nM.
As to `CCCCC[C@H](O)/C=C/C1[C@H](O)C[C@H](O)[C@@H]1C/C=C\CCCC(=O)O` (stereo partly drawn) [(Z)-7-[(1R,3R,5S)-3,5-Dihydroxy-2-((E)-(S)-3-hydroxy-oct-1-enyl)-cyclopentyl]-hept-5-enoic acid], the inhibitory constant (Ki) in experiment [1] was found to be 75 nM; in experiment [5], 1300 nM.
Compound `CCCC1([C@@H](O)C/C=C/C2[C@H](O)CC(=O)[C@@H]2CCCCCCC(=O)OC)CCC1` (some centres not stated) [Butaprost (Methyl Ester)] yielded an inhibition constant (Ki) in experiment [2] of 110 nM.
`CC(C)Oc1ccc2c(=O)c3cc(C(=O)O)ccc3oc2c1` [CAS_33458-93-4] displayed a Ki in experiment [2] of 350 nM.
With `O=C(O)CCCC=CCC1C(O)CC(O)C1C=CC(O)COc1cccc(C(F)(F)F)c1` (configuration not stated) [CAS_40666-16-8], the inhibition constant Ki in experiment [6] turned out to be 3.8 nM.
Take `CCCCCC(O)CC=C1C(=O)C=CC1CC=CCCCC(=O)O` (configuration not stated) [CAS_41598-07-6]: the Ki was found to be 280 nM in experiment [1] and 47 nM in experiment [6].
`CS(=O)(=O)NC(=O)CCCC=CCC1C(=O)CC(O)C1C=CC(O)COc1ccccc1` (configuration not stated) [CAS_60325-46-4]: the inhibition constant (Ki) in experiment [1] was found to be 0.6 nM; in experiment [6] it was 580 nM; in experiment [5] it was 21 nM.
`O=C(O)CCCCCCC1C(=O)CCC1C=CC(O)COc1ccccc1` (configuration not stated) [CAS_80558-61-8]: the inhibition constant (Ki) in experiment [1] was found to be 0.68 nM; in experiment [3] it was 500 nM; in experiment [7] it was 1300 nM; in experiment [6], 124 nM; in experiment [5], 120 nM.
Consider `CCC#CCC(C)C(O)C#CC1C(O)CC2CC(=CCOCC(=O)O)CC21` (configuration not stated) [CAS_94079-80-8], for which the Ki in experiment [1] amounted to 170 nM; in experiment [2] it was 1300 nM; in experiment [4], 10 nM.
Consider `CCCCCC(O)c1ccc(C2CCC(=O)C2CCCCCCC(=O)O)cc1` (configuration not stated) [CAS_132836], for which the Ki was 82 nM in experiment [1] and 240 nM in experiment [2].
Consider `CCCCC[C@H](O)/C=C/[C@H]1[C@H](O)CC(=O)[C@@H]1C/C=C\CCCC(=O)O` [DINOPROSTONE], for which the Ki in experiment [1] amounted to 0.85 nM; in experiment [2], 12 nM; in experiment [6] it was 100 nM; in experiment [5], 20 nM.
As to `O=C(O)CC/C=C\CC[C@@H]1[C@@H](N2CCCCC2)[C@@H](O)C[C@@H]1OCc1ccc(-c2ccccc2)cc1` [GR 32191], in experiment [7], the Ki was determined as 12 nM.
Regarding `O=C(O)CCC/C=C\C[C@H]1[C@@H]2CCC(O2)[C@@H]1/C=C/[C@@H](O)COc1ccc(I)cc1` [I-BOP], the Ki turned out to be 100 nM in experiment [1], 220 nM in experiment [2], 0.56 nM in experiment [7] and 100 nM in experiment [6].
With `CCCCC(C)(O)CC=CC1C(O)CC(=O)C1CCCCCCC(=O)OC` (configuration not stated) [MISOPROSTOL (Methyl Ester)], the inhibition constant (Ki) stood at 67 nM in experiment [1], 250 nM in experiment [2], 67 nM in experiment [3] and 120 nM in experiment [5].
Turning to `CC#CCC(C)C(O)C=CC1C(O)CC2Oc3c(CCCC(=O)O)cccc3C21` (configuration not stated) [NSC_2352], the inhibition constant Ki was 110 nM in experiment [1] and 16 nM in experiment [4].
For `CC1=C(CCON=C(c2ccccc2)c2cccnc2)c2cccc(OCC(=O)O)c2CC1` [NSC_128021], in that order: 740 nM and 47 nM.
With `O=C(O)CCCCCCc1c(O)[nH]c(=O)n1CCC(O)C1CCCCC1` (configuration not stated) [NSC_3080928], the Ki in experiment [6] was found to be 1700 nM.
With `O=C(CCC=CCCC1C(=O)CC(O)C1OCC(O)COc1ccccc1)Oc1ccc(NC(=O)c2ccccc2)cc1` (configuration not stated) [NSC_5311224], the inhibition constant (Ki) is 1.9 nM in experiment [1] and 480 nM in experiment [3].
With `CCCCCC(O)C=CC1C(O)CC2C=C(CCCCC(=O)O)CC21` (configuration not stated) [NSC_5311244], the Ki in experiment [1] turned out to be 31 nM; in experiment [2] it was 1000 nM; in experiment [4] it was 15 nM.
Consider `O=C(O)CCCCCCC1C(=O)CC(O)C1C=CC(O)CCCCCO` (configuration not stated) [PGE1,1-OH], for which the values for the inhibitory constant (Ki) in experiment [1] and in experiment [3] were 330 nM and 190 nM, respectively.
Regarding `CCCCCC(O)C=CC1CCC(=O)C1CCCCCCC(=O)O` (configuration not stated) [PGE1,11-DEOXY], the Ki in experiment [1] came out at 1.5 nM; in experiment [2], 45 nM; in experiment [3] it was 23 nM; in experiment [4], 1000 nM; in experiment [5], 600 nM.
Regarding `C[C@H](O)CCCC(O)C=CC1C(O)CC(=O)C1CC=CCCCC(=O)O` (some centres not stated) [PGE2,19R(OH)], the inhibition constant Ki in experiment [6] came to 1000 nM.
As for `CCCCC[C@H](O)/C=C/C1C[C@H]2C[C@H](S2)[C@@H]1C/C=C\CCCC(=O)O` (some centres not stated) [STA2], the Ki is 23 nM in experiment [1]; 220 nM in experiment [2]; 350 nM in experiment [3]; 14 nM in experiment [7]; 97 nM in experiment [6].
`CCCCC[C@H](O)/C=C/C1[C@@H](C/C=C\CCCC(=O)O)[C@H]2CO[C@@H]1C2` (some centres not stated) [U46619]: the inhibitory constant (Ki) in experiment [7] was found to be 67 nM; in experiment [6], 1000 nM.
